# Assay results reported in patent US20020049223A1, “Quinoline and naphthyridine carboxylic acid antibacterials” (priority 1999, published 2002).
# Tests used:
# Assay in all cases: Assay B: in vitro antibacterial activity, broth microdilution MIC (NCCLS)
# Format in all cases: cell-based
# [1] = system: Enterococcus faecalis PIU 1967; conditions: Table 2, Assay B, cation-adjusted Mueller Hinton broth, 35° C., 16 to 20 hr; code B = Enterococcus faecalis PIU 1967; unit assumed
# How it was run: (§1)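 Growth inhibition read by eye after incubation at 35° C (16 to 20 hr; 20 to 24 hr for S. pneumoniae and H. influenzae). Medium: cation-adjusted Mueller Hinton broth, supplemented with 3% lysed horse blood or with 5 g/L yeast extract, 0.3 mmol/L hematin and 15 mg/L NAD, respectively.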
# Escherichia coli JUHL = conditions: Table 2, Assay B, cation-adjusted Mueller Hinton broth, 35° C., 16 to 20 hr; code D = Escherichia coli JUHL; unit assumed
# How it was run: as §1
# [2] = system: Haemophilus influenzae DILL AMP R; conditions: Table 2, Assay B, Mueller Hinton broth with yeast extract, hematin and NAD, 20 to 24 hr; code E = Haemophilus influenzae DILL AMP R; unit assumed
# How it was run: as §1
# [3] = system: Staphylococcus aureus ATCC 6538P; conditions: Table 2, Assay B, cation-adjusted Mueller Hinton broth, 35° C., 16 to 20 hr; code A = Staphylococcus aureus ATCC 6538P; unit assumed
# How it was run: as §1
# [4] = system: Streptococcus pneumoniae ATCC 6303; conditions: Table 2, Assay B, Mueller Hinton broth with 3% lysed horse blood, 20 to 24 hr; code F = Streptococcus pneumoniae ATCC 6303; unit assumed
# How it was run: as §1
SMILES,"Antibacterial Activity (MIC's), B [1]","Antibacterial Activity (MIC's), D (Escherichia coli JUHL)","Antibacterial Activity (MIC's), E [2]","Antibacterial Activity (MIC's), A [3]","Antibacterial Activity (MIC's), F [4]"
"COc1c(-c2cc3c(s2)C(O)C(C)(C)CC3)ccc2c(=O)c(C(=O)O)cn(C3CC3)c12 (stereo not drawn) [Example 241, 1-cyclopropyl-7-(7-hydroxy-6,6-dimethyl-4,5,6,7-tetrahydro-1-benzothien-2-yl)-8-methoxy-4-oxo-1,4-dihydro-3-quinolinecarboxylic acid]",0.25 µg/mL,1 µg/mL,0.25 µg/mL,0.015 µg/mL,1 µg/mL
"COc1c(-c2cc3c(s2)CCC(F)(F)C3N)ccc2c(=O)c(C(=O)O)cn(C3CC3)c12 (stereo not drawn) [Example 206, 7-(4-amino-5,5-difluoro-4,5,6,7-tetrahydro-1-benzothien-2-yl)-1-cyclopropyl-8-methoxy-4-oxo-1,4-dihydro-3-quinolinecarboxylic acid]",0.125 µg/mL,1 µg/mL,0.5 µg/mL,0.03 µg/mL,0.5 µg/mL
"COc1c(-c2cc3c(s2)CCCC3CN(C)C)ccc2c(=O)c(C(=O)O)cn(C3CC3)c12 (stereo not drawn) [Example 127, 1-cyclopropyl-7-(4-((dimethylamino)methyl)-4,5,6,7-tetrahydro-1-benzothien-2-yl)-8-methoxy-4-oxo-1,4-dihydro-3-quinolinecarboxylic acid]",0.25 µg/mL,1 µg/mL,0.125 µg/mL,0.5 µg/mL,0.5 µg/mL
"Cl.NC1CCCc2sc(-c3cc4c(cc3F)c(=O)c(C(=O)O)cn4C3CC3)cc21 (stereo not drawn) [Example 307, 7-(4-amino-4,5,6,7-tetrahydro-1-benzothien-2-yl)-1-cyclopropyl-6-fluoro-4-oxo-1,4-dihydroquinoline-3-carboxylic acid hydrochloride]",0.03 µg/mL,0.03 µg/mL,0.015 µg/mL,0.008 µg/mL,0.008 µg/mL
"COc1c(-c2cc3c(s2)CCCC3=NNC(N)=O)ccc2c(=O)c(C(=O)O)cn(C3CC3)c12 [Example 80, 7-((4E/Z)-4-((aminocarbonyl)hydrazono)-4,5,6,7-tetrahydro-1-benzothien-2-yl)-1-cylopropyl-8-methoxy-4-oxo-1,4-dihydro-3-quinolinecarboxylic acid]",> 64 µg/mL,> 64 µg/mL,0.06 µg/mL,32 µg/mL,0.03 µg/mL
"COc1c(-c2cc3c(s2)C(O)CCC3(C)C)ccc2c(=O)c(C(=O)O)cn(C3CC3)c12 (stereo not drawn) [Example 218, 1-cyclopropyl-7-(7-hydroxy-4,4-dimethyl-4,5,6,7-tetrahydro-1-benzothien-2-yl)-8-methoxy-4-oxo-1,4-dihydro-3-quinolinecarboxylic acid]",0.25 µg/mL,2 µg/mL,0.25 µg/mL,0.06 µg/mL,0.5 µg/mL
"O=C(O)c1cn(C2CC2)c2c(F)c(-c3cc4c(s3)CCCC4O)c(F)cc2c1=O (stereo not drawn) [Example 294, 1-cyclopropyl-6,8-difluoro-7-(4-hydroxy-4,5,6,7-tetrahydro-1-benzothien-2-yl)-4-oxo-1,4-dihydroguinoline-3-carboxylic acid]",0.015 µg/mL,0.03 µg/mL,≤ 0.004 µg/mL,≤ 0.004 µg/mL,0.03 µg/mL
"COc1c(-c2cc3c(s2)CCCC3CN2CCOCC2)ccc2c(=O)c(C(=O)O)cn(C3CC3)c12 (stereo not drawn) [Example 126, 1-cyclopropyl-8-methoxy-7-(4-(4-morpholinylmethyl)-4,5,6,7-tetrahydro-1-benzothien-2-yl)-4-oxo-1,4-dihydro-3-quinolinecarboxylic acid]",0.5 µg/mL,16 µg/mL,1 µg/mL,0.004 µg/mL,0.5 µg/mL
"COc1c(-c2cc3c(s2)CCC(C)(CO)C3=O)ccc2c(=O)c(C(=O)O)cn(C3CC3)c12 (stereo not drawn) [Example 207, 1-cyclopropyl-7-(5-(hydroxymethyl)-5-methyl-4-oxo-4,5,6,7-tetrahydro-1-benzothien-2-yl)-8-methoxy-4-oxo-1,4-dihydro-3-quinolinecarboxylic acid]",0.125 µg/mL,1 µg/mL,0.125 µg/mL,0.015 µg/mL,0.5 µg/mL
